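These data come from cells grown in 96-well plates and exposed to compound for 48 hours at five concentrations. GI50 is the concentration that inhibits growth by half.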 The source made the active and inactive calls. Rule as the data show it: active = GI50 up to about 1.1 µM and inactive = higher.

Assay in all cases: NCI-60 cell line screen, 48 h
Test [1] concerns ACHN.
For test [2], the system named is CCRF-CEM.
Test [3] relates to HCT-116.
For test [4], the system named is HCT-15.
The subject of test [5] is HOP-92.
Test [6] relates to IGROV-1.
Test [7] relates to MDA-MB-435.
Test [8] has as its system MOLT-4.
For test [9], the system named is NCI-H460.
Test [10] has as its system NCI-H522.
Test [11] deals with OVCAR-3.
Test [12] relates to SF-268.
Test [13] has as its system SF-539.
Test [14] deals with SK-MEL-28.
Test [15] deals with SK-MEL-5.
Test [16] relates to SK-OV-3.
Test [17] deals with SW-620.
Test [18] has as its system U-251.
Test [19] concerns A498.
Test [20] relates to LOX IMVI.

Take `O=C(CC(=O)N1N=C(N(c2ccccc2)c2ccccc2)CC1c1ccccc1)Nc1ccc(Cl)cc1` (stereo not given): the GI50 in [1] was > 100 µM (inactive); in [2], > 100 µM (inactive); in test [3], > 100 µM (inactive); in test [4], more than 100 µM; in test [5], > 100 µM (inactive); in [6], > 100 µM (inactive). Also, the GI50 in [7], in test [8], in [9], in test [10], in test [11] and in [12] was > 100 µM (inactive) throughout. In addition, the GI50 in test [13], in test [14], in test [15], in test [16], in test [17] and in [18] was > 100 µM (inactive) each time.

Take `Cc1cccc(NC(=S)Nc2ccc([N+](=O)[O-])cc2)n1`: the GI50 is > 100 µM (inactive) in [19]; > 100 µM (inactive) in [1]; > 100 µM (inactive) in test [2]; > 100 µM (inactive) in test [3]; more than 100 µM in test [4]; > 100 µM (inactive) in [5]. Further, the GI50 in test [6], in test [20], in test [7], in [8], in test [9] and in test [12] was > 100 µM (inactive) throughout. For the same compound, the GI50 in test [13], in test [14], in test [15], in test [16], in [17] and in test [18] was > 100 µM (inactive) each time.

Turning to `CCCCc1c(OC)cc(O)c2c1C(=O)c1[nH]c(C(=O)O)c(O)c(=O)c1C2=O`, the GI50 in test [1] was 2.27 µM (inactive); in test [2], 42.1 µM (inactive); in test [3] it was 3.37 µM (inactive); in test [4] it was 23.8 µM; in test [5], 3.19 µM (inactive); in test [6] it was 8.43 µM (inactive). The GI50 in test [20] is 4.01 µM (inactive); in [7] it was 5.56 µM (inactive); in test [8], 19.8 µM (inactive); in test [9] it was 46.8 µM (inactive); in test [10], 2.12 µM (inactive); in test [11], 0.908 µM (active). Also, the GI50 in test [12] is 1.95 µM (inactive); in [13], 0.499 µM (active); in test [14] it was 4.11 µM (inactive); in [16], 4.35 µM (inactive); in test [17] it was 83 µM (inactive); in [18], 2.95 µM (inactive).

Regarding `CCN(CCCl)c1cc(CN(C)C)cc(NC(=O)c2ccc(C(=O)Nc3cc(CN(C)C)cc(N(CC)CCCl)c3)cc2)c1`, the GI50 is 0.162 µM (active) in test [1]; 0.0156 µM (active) in test [2]; 0.0962 µM (active) in test [3]; 5.69 µM in [4]; 0.184 µM (active) in test [5]; 0.135 µM (active) in [6]. Also, the GI50 in test [20] is 0.0826 µM (active); in test [7], 0.162 µM (active); in test [8], 0.0183 µM (active); in test [9], < 0.0211 µM (active); in test [10], 0.0231 µM (active); in test [11], 0.384 µM (active). Moreover, the GI50 in test [12] was 0.0502 µM (active); in test [13] it was 0.0762 µM (active); in [14], 0.159 µM (active); in test [15], 0.158 µM (active); in [16], 0.226 µM (active); in test [17] it was 0.149 µM (active). In addition, in [18], the GI50 is 0.0723 µM (active).

As for `O=[N+]([O-])c1cccc2nnccc12`, the GI50 in test [1] was 11.7 µM (inactive); in test [3] it was 12.1 µM (inactive); in test [4] it was 12.9 µM; in test [5], 24.2 µM (inactive); in test [6] it was 24.7 µM (inactive); in test [7], 15.7 µM (inactive). Also, the GI50 in test [8] is 28.4 µM (inactive); in test [9], 19.1 µM (inactive); in test [10] it was 3.71 µM (inactive); in test [12], 25.2 µM (inactive); in test [13], 48 µM (inactive); in test [15] it was 14.1 µM (inactive). In addition, the figures for the GI50 in [16], in [17] and in [18] were 93.3 µM (inactive), 42 µM (inactive) and 41.6 µM (inactive), respectively.

In the case of `COc1cc(/C=N/N=C2NCCN2)ccc1O`, the GI50 in [1] is > 100 µM (inactive); in [2] it was > 100 µM (inactive); in test [3], > 100 µM (inactive); in test [4] it was more than 100 µM; in test [5] it was > 100 µM (inactive); in test [6], > 100 µM (inactive). For the same compound, the GI50 in [20], in test [7], in [8], in test [9], in test [10] and in [11] was > 100 µM (inactive) in each case. The GI50 in test [12], in [13], in test [14], in test [15], in test [16] and in test [17] was > 100 µM (inactive) each time. For the same compound, in [18], the GI50 is > 100 µM (inactive).

In the case of `NC(=S)N/N=C(/C(=O)Nc1nc2ccc([N+](=O)[O-])cc2s1)C1C(=O)NC(=S)NC1=O`, the GI50 in test [19] was 72.3 µM (inactive); in test [1], 59.4 µM (inactive); in test [2], > 100 µM (inactive); in [3] it was > 100 µM (inactive); in [4] it was 42.7 µM; in test [5], 77.6 µM (inactive). Also, the GI50 in [20] was > 100 µM (inactive); in test [7], > 100 µM (inactive); in [8] it was > 100 µM (inactive); in test [9], 56.1 µM (inactive); in test [11], > 100 µM (inactive); in test [12] it was 88.9 µM (inactive). For the same compound, the GI50 in test [13] is 49 µM (inactive); in [14], > 100 µM (inactive); in test [16], > 100 µM (inactive); in test [17], > 100 µM (inactive); in [18], > 100 µM (inactive).

As to `CCN(CC)c1ccc2cc(C(=O)Nc3cccc4ccccc34)c(=N)oc2c1`, the GI50 in [1] is > 100 µM (inactive); in [2] it was > 100 µM (inactive); in test [3] it was > 100 µM (inactive); in test [4], more than 100 µM; in [5], > 100 µM (inactive); in test [6], > 100 µM (inactive). Also, the GI50 was > 100 µM (inactive) in [20]; 91.8 µM (inactive) in test [7]; 89.5 µM (inactive) in test [9]; 64 µM (inactive) in test [10]; > 100 µM (inactive) in [12]; 72.9 µM (inactive) in [13]. Moreover, the GI50 in [14] is 58.5 µM (inactive); in [15], 43.1 µM (inactive); in test [16], > 100 µM (inactive); in test [17] it was 67 µM (inactive); in [18], 48.4 µM (inactive).

As for `O=C1CC(NCCCNC2CC(=O)c3c(Br)sc(Br)c32)c2c(Br)sc(Br)c21` (stereo not given), the GI50 is 1.8 µM (inactive) in test [1]; 0.238 µM (active) in test [2]; 1.36 µM (inactive) in test [3]; 1.71 µM in test [4]; 2.48 µM (inactive) in test [5]; 1.71 µM (inactive) in test [6]. For the same compound, the GI50 in [20] was 1.4 µM (inactive); in test [7], 1.39 µM (inactive); in [8] it was 0.42 µM (active); in test [9] it was 3.62 µM (inactive); in [10], 1.25 µM (inactive); in test [11], 1.82 µM (inactive). The GI50 in test [12] was 2.54 µM (inactive); in [13], 2.47 µM (inactive); in [14], 3.15 µM (inactive); in test [15], 2.04 µM (inactive); in test [16] it was 4.1 µM (inactive); in [17] it was 2.31 µM (inactive). In addition, the GI50 in test [18] is 1.82 µM (inactive).

With `Cc1cnc2c(c1)C(=O)N(c1ccc(Br)cc1)S2(=O)=O`, the GI50 in test [1] is > 100 µM (inactive); in test [2] it was > 100 µM (inactive); in test [3] it was > 100 µM (inactive); in test [4], more than 100 µM; in [6] it was 56.1 µM (inactive); in test [20], > 100 µM (inactive). Further, the GI50 in test [7] was > 100 µM (inactive); in test [8], > 100 µM (inactive); in test [9], > 100 µM (inactive); in test [10], 19.5 µM (inactive); in test [11], > 100 µM (inactive); in test [12] it was 78.5 µM (inactive). The GI50 in [13], in test [14], in [15], in test [16], in test [17] and in test [18] was > 100 µM (inactive) throughout.

Consider `Cc1ccc(S(=O)(=O)N(CC(O)COc2ccccc2)c2ccc(F)cc2F)cc1` (stereo not given), for which the GI50 was 15.3 µM (inactive) in test [19]; 16.5 µM (inactive) in test [1]; 18.9 µM (inactive) in test [2]; 17.1 µM in [4]; 0.122 µM (active) in test [5]; 14.2 µM (inactive) in test [20]. The GI50 in test [7] was 16.1 µM (inactive); in test [8], 22.8 µM (inactive); in test [9] it was 15.8 µM (inactive); in [11], 15.3 µM (inactive); in test [12], 15.3 µM (inactive); in test [13] it was 16.4 µM (inactive). Also, the GI50 in test [14] is 15.8 µM (inactive); in [15], 14.7 µM (inactive); in [16] it was 18.7 µM (inactive); in [17], 16.5 µM (inactive); in [18] it was 14.4 µM (inactive).

These data come from ChEMBL document CHEMBL1201862, “PubChem BioAssay data set” (2004).
